Assay results taken from article PMC7753040, “Discovery of a Potent RIPK3 Inhibitor for the Amelioration of Necroptosis-Associated Inflammatory Injury” (Frontiers in Cell and Developmental Biology, 2020).
Like-named read-outs stand apart in the source and are kept apart here.

Legend:
[1] = system: mouse bone marrow derived macrophages; experiment: TLR4-mediated necroptosis induced by LPS/z-VAD in mouse bone marrow-derived macrophages; assay type: cell-based; conditions: mouse BMDM; 2 h pretreatment, LPS 20 ng/ml plus z-VAD for 24 h
Text: (§1) Human colon cancer HT-29 and mouse fibrosarcoma L929 cells were from ATCC. Mouse embryonic fibroblasts (MEF), HT-29 cells stably expressing RIPK3-shRNA and shRNA resistant scramble Flag-tagged RIPK3 (W46), and NIH3T3 cell line stably expressing RIPK3 fused to mutant FK506-binding protein (NIH3T3-RIPK3) were kindly provided by Dr. Xiaodong Wang [National Institute of Biological Sciences (NIBS), Beijing]. HeLa-MLKL (1-190) cell line was a gift from Dr. Zhigao Wang (University of Texas Southwestern Medical Center at Dallas). These cells were cultured in Dulbecco’s modified Eagle’s medium (Hyclone) supplemeted with 10% fetal bovine serum (Invitrogen) and 2 mM L-glutamine (Invitrogen) in a humidified incubator at 37°C and 5% CO2. NIH3T3-RIPK3 was cultured in complete medium containing 2 μg/ml G418 (Calbiochem). […]
(§2) Cells were seeded in 96-well plates and then treated as indicated. The cell viability was determined by assessment of ATP levels using the CellTiter-Glo Luminescent Cell Viability Assay kit following the manufacture’s instructions (Promega). Luminescence was calculated with SpectraMax i3x (Molecular Devices).
(§3) Cell viability was determined by measuring ATP levels. […] After 5 h, cell viability was determined by measuring ATP levels and ICP6 mRNA expression was detected using viral genome extracted from cell culture supernatant. *P < 0.05. **P < 0.01. ***P < 0.001.

[2] = system: rat bone marrow derived macrophages; experiment: TLR4-mediated necroptosis induced by LPS/z-VAD in rat bone marrow-derived macrophages; assay type: cell-based; conditions: rat BMDM; 2 h pretreatment, LPS 20 ng/ml plus z-VAD for 24 h
Text: as §1, §2, §3

[3] = system: phosphorylation of RIPK1, RIPK3, and MLKL; experiment: Western blot of phosphorylation of RIPK1, RIPK3 and MLKL in HT-29 cells upon necroptotic stimuli; assay type: cell-based, human; conditions: 2 h pretreatment, TNF-α/Smac mimetic/z-VAD 8 h
Method: (§4) The cell pellets were harvested and dissolved in lysis buffer (20 mM Tris–HCl, pH 7.4 150 mM NaCl, 1% Triton X-100, 1 mM Na3VO4, 10% glycerol, 25 mM β-glycerol-phosphate, 0.1 mM PMSF, with the Sigma phosphatase inhibitors and the Roche Pierce protease inhibitor set). The re-suspended cell pellet was then incubated on ice for 20 min, followed by centrifugation at 13000 × g for 20 min at 4°C. The supernatants were collected and protein concentrations were measured using the BCA Protein Assay Kit (Thermo Fisher Scientifc, United States). Finally, cell lysates were subjected for western-blot analysis of the indicated antibodies.
(§5) Cell lysates were prepared for immunoprecipitation using an anti-Flag antibody. The levels of RIPK3 and RIPK1 in the immunocomplex were determined by western blot analysis.

[4] = system: phosphorylation of RIPK1, RIPK3, and MLKL; experiment: Western blot of phosphorylation of RIPK1, RIPK3 and MLKL in L929 cells upon necroptotic stimuli; assay type: cell-based, mouse; conditions: 2 h pretreatment, TNF-α/z-VAD 4 h
Method: as §4, §5

human RIPK3 = molecular target: T1, human RIPK3 (Homo sapiens, UniProt Q9Y572); experiment: In vitro kinase activity assay (ADP-Glo), RIPK3; assay type: biochemical; conditions: ATP 50 μM, MBP 20 μM; compared to GSK’872
T1 construct: purchased SignalChem
Method: The recombinant human RIPK1 or RIPK3 protein was incubated with the control DMSO or the indicated compound for around 15 min in the assay buffer (25 mM HEPES PH7.2, 12.5 mM MnCl2, 5 mM EGTA, 20 mM MgCl2, 12.5 mM β-glycerol phosphate, 2 mM EDTA, and 2 mM DTT). ATP (50 μM) and the substrate MBP (20 μM) were then added to the reaction at room temperature for 2 h. The kinase activity was calculated by the measuring the luminescence after the addition of the ADP-Glo Kinase Assay kit according to the manufacture’s instructions (Promega).
In vitro kinase activity assays using recombinant RIPK3 and RIPK1 were performed as described in the section “Materials and Methods.” Data represent mean value ± standard deviation. […] NIH3T3-RIPK3 cells were pretreated with indicated compounds for 2 h and subsequently treated with AP20187 (60 nM) for 24 h. Cell viability was determined by measuring ATP levels. […] HeLa-MLKL (1–190) cells were induced by doxycycline (1 μg/ml) for 24 h. Cells were pretreated with indicated compounds for 2 h and subsequently treated with AP20187 (60nM) for 24h. Cell viability was determined by measuring ATP levels. […] (F) MEFs were treated as indicated for 3 h. Cell lysates were harvest and subjected to western-blot analysis for full length and cleaved caspase 3.

NIH3T3-RIPK3 cells = experiment: RIPK3 dimerization-induced cell death in NIH3T3-RIPK3 cells (AP20187); assay type: cell-based, mouse; conditions: 2 h pretreatment, AP20187 60 nM 24 h
Text: as §1, with “CO2.” for “CO2. NIH3T3-RIPK3 was cultured in complete medium containing 2 μg/ml G418 (Calbiochem).”
as §2
(§6) In vitro kinase activity assays using recombinant RIPK3 and RIPK1 were performed as described in the section “Materials and Methods.” Data represent mean value ± standard deviation. […] Cell viability was determined by measuring ATP levels. […] Cell viability was determined by measuring ATP levels. […]

HeLa-MLKL (1–190) cells = experiment: MLKL polymerization-induced necroptosis in HeLa-MLKL (1-190) cells (AP20187); assay type: cell-based, human; conditions: doxycycline 1 μg/ml 24 h, 2 h pretreatment, AP20187 60 nM 24 h
Text: as §1, with “CO2.” for “CO2. NIH3T3-RIPK3 was cultured in complete medium containing 2 μg/ml G418 (Calbiochem).”
as §2, §6

CYP1A2 = CYP1A2 (Homo sapiens, UniProt P05177); experiment: Cytochrome P450 inhibition, CYP1A2; assay type: in vitro ADME
Method: (§7) Cytochrome P450 (CYP) inhibitory potency was determined by industrial standard methods as reported previously ([Dong et al., 2015]). Methods to determine potassium channel hERG inhibition and in vivo pharmacokinetic parameters have been previously published ([Lu et al., 2017]).

[5] = Metabolic stability in human liver microsomes; assay type: in vitro ADME
Text: Encouraged by the in vitro and in vivo efficacy data, we sought to evaluate the preliminary drugability profile of Zharp-99.
(§8) (C) Pharmacokinetic parameters of Zharp-99 determined in male ICR mouse.

[6] = Metabolic stability in mouse liver microsomes; assay type: in vitro ADME; conditions: mouse liver microsomes (MLM)
[7] = In vivo mouse pharmacokinetic study; conditions: male ICR mouse
Method: as §7, §8

Chain of CYP1A2 (P05177 whole entry): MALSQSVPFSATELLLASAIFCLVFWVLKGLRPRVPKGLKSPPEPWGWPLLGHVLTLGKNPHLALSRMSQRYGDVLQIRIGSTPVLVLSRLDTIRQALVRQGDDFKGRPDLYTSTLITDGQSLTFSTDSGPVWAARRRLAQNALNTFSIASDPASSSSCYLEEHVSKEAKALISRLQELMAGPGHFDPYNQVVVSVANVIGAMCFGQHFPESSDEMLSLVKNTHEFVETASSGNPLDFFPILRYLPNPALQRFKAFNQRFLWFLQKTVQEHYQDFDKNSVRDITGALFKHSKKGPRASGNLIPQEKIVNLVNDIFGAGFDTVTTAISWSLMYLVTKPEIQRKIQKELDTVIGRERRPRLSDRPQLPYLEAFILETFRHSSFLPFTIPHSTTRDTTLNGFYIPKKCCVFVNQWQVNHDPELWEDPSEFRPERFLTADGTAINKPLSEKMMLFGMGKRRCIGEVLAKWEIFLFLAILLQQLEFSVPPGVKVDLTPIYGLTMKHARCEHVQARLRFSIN
T1 sequence (Q9Y572 whole entry): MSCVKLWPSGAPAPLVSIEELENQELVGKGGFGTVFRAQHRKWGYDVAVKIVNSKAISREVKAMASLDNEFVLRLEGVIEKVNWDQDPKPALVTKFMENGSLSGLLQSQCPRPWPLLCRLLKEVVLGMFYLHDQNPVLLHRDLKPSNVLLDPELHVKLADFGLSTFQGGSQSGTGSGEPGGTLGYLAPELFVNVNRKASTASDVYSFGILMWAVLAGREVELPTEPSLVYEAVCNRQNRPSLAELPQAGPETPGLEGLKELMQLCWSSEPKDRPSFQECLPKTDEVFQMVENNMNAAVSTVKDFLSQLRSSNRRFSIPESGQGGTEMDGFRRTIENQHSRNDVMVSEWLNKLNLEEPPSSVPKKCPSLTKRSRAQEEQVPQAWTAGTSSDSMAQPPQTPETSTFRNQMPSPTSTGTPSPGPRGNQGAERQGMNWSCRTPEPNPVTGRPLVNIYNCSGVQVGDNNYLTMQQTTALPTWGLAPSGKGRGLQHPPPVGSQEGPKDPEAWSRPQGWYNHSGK

## O=S1(=O)C=C(C2CC2)c2cc3nccc(Nc4ccc5scnc5c4)c3cc21 [Zharp-99]
[1]
  inhibition of TLR4-mediated necroptosis induced by LPS/z-VAD: potently blocked
[2]
  inhibition of TLR4-mediated necroptosis induced by LPS/z-VAD: potently blocked
[3]
  RIPK1 phosphorylation at S166: did not reduce
  phosphorylation of MLKL: abolished
  phosphorylation of RIPK3: abolished
[4]
  phosphorylation of MLKL: blocked
  phosphorylation of RIPK3: blocked
Human RIPK3
  inhibition of the kinase activity of human RIPK3 in vitro: higher inhibitory activity compared to GSK’872
NIH3T3-RIPK3 cells
  RIPK3 dimerization-induced necroptosis: efficiently blocked
HeLa-MLKL (1–190) cells
  polymerized MLKL-induced necroptosis: did not affect
CYP1A2; 10 μM
  % of CYP inhibiton 1A2: did not inhibit
CYP1A2; human, read-out: % of CYP inhibiton 1A2
  inhibition at 10 µM: 9.26%
[5]
  CLint scaled: 63 mL/min/kg
  Clint: moderate
  half-life: 0.467 h
[6]
  half-life: 0.433 h
[7]; 2 mg/kg (iv)
  Cmax: 1390 ng/mL
  half-life: 1.5 h
[7]; 2 mg/kg (iv), read-out: AUC
  AUC: 990 ng·h/mL
[7]; 2 mg/kg (iv), read-out: CL (clearance)
  clearance: 33 mL/min/kg
[7]; 2 mg/kg (iv), read-out: Vz (volume of distribution)
  Vd: 4.4 L/kg
[7]; 10 mg/kg (po)
  Cmax: 2650 ng/mL
  Tmax: 1 h
  half-life: 1.2 h
[7]; 10 mg/kg (po), read-out: AUC (exposure)
  AUC: 8220 ng·h/mL
